Laboratory results taken from patent publication US20230036854A1, “HETEROCYCLIC SPIRO-COMPOUNDS AS AM2 RECEPTOR INHIBITORS” (THE UNIVERSITY OF SHEFFIELD, priority 2018, published 2023).

Biological target: T1, AM2 receptor (1321N1 cells transfected with CALCRL+RAMP3) (Homo sapiens, UniProt O60896+Q16602)
T1 construct: host or cells: 1321N1 cells
Assay: AM2 receptor inhibition, LANCE cAMP agonist-antagonist competition assay
Type: cell-based
Conditions: inhibition of AM induced cAMP activation, read-out: AM2 D2 protocol: pIC50 (converted)
How it was run: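 cAMP was quantified by LANCE TR-FRET after an EC50 challenge with adrenomedullin (15 min, room temperature) in CALCRL+RAMP3-transfected 1321N1 cells (2500/well) that had first been exposed to compound for 30 min. Buffer was pH 7.4 HBSS with HEPES and BSA. Forskolin defined 100% stimulation and vehicle 0%.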

T1 sequence (Q16602 23-461): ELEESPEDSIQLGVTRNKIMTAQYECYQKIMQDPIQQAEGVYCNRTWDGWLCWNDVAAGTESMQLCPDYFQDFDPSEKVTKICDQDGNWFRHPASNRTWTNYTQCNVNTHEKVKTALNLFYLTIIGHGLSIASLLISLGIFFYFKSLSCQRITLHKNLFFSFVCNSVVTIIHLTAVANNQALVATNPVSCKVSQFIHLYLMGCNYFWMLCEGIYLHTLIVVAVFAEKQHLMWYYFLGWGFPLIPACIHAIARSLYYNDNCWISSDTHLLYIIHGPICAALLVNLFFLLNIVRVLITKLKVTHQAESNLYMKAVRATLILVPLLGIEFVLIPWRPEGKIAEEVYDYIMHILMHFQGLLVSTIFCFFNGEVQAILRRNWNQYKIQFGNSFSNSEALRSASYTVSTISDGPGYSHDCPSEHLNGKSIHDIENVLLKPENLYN
T1 sequence (O60896 24-148): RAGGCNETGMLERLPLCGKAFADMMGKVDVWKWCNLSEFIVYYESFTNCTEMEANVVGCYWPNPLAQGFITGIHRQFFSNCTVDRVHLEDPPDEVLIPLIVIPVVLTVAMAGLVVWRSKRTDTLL

IC50 [nM]	SMILES
57.5	CCC1(C(=O)N(CC(=O)Nc2ccc3c(c2)C[C@@]2(C3)C(=O)Nc3ncccc32)Cc2ccccc2CNC)CCN(C(=O)[C@H](N)C(C)C)CC1 [Example 80, 1-((R)-2-Amino-3-methylbutanoyl)-4-ethyl-N-(2-((methylamino)methyl)benzyl)-N-(2-oxo-2-(((R)-2′-oxo-1,1′,2′,3-tetrahydrospiro[indene-2,3′-pyrrolo[2,3-b]pyridin]-5-yl)amino)ethyl)piperidine-4-carboxamide]
2.34	CCC1(C(=O)N(CC(=O)Nc2ccc3c(c2)C[C@@]2(C3)C(=O)Nc3ncccc32)Cc2ccccc2CNC)CCN(C(=O)[C@H](N)c2ccccc2)CC1 [Example 81, 1-((R)-2-Amino-2-phenylacetyl)-4-ethyl-N-(2-((methylamino)methyl)benzyl)-N-(2-oxo-2-(((R)-2′-oxo-1,1′,2′,3-tetrahydrospiro[indene-2,3′-pyrrolo[2,3-b]pyridin]-5-yl)amino)ethyl)piperidine-4-carboxamide]
8.32	CCC1(C(=O)N(CC(=O)Nc2ccc3c(c2)C[C@@]2(C3)C(=O)Nc3ncccc32)Cc2ccccc2CNC)CCN(C(=O)[C@@H](N)C(C)C)CC1 [Example 82, 1-((S)-2-Amino-3-methylbutanoyl)-4-ethyl-N-(2-((methylamino)methyl)benzyl)-N-(2-oxo-2-(((R)-2′-oxo-1,1′,2′,3-tetrahydrospiro[indene-2,3′-pyrrolo[2,3-b]pyridin]-5-yl)amino)ethyl)piperidine-4-carboxamide]
56.2	CCC1(C(=O)N(CC(=O)Nc2ccc3c(c2)C[C@@]2(C3)C(=O)Nc3ncccc32)Cc2ccccc2CNC)CCN(C(=O)[C@H]2COCCN2)CC1 [Example 83, 4-Ethyl-N-(2-((methylamino)methyl)benzyl)-1-((R)-morpholine-3-carbonyl)-N-(2-oxo-2-(((R)-2′-oxo-1,1′,2′,3-tetrahydrospiro[indene-2,3′-pyrrolo[2,3-b]pyridin]-5-yl)amino)ethyl)piperidine-4-carboxamide]
3.55	CCC1(C(=O)N(CC(=O)Nc2ccc3c(c2)C[C@@]2(C3)C(=O)Nc3ncccc32)Cc2ccccc2CNC)CCN(C(=O)c2ccn[nH]2)CC1 [Example 84, (R)-4-Ethyl-N-(2-((methylamino)methyl)benzyl)-N-(2-oxo-2-((2′-oxo-1,1′,2′,3-tetrahydrospiro[indene-2,3′-pyrrolo[2,3-b]pyridin]-5-yl)amino)ethyl)-1-(1H-pyrazole-5-carbonyl)piperidine-4-carboxamide]
3.8	CCC1(C(=O)N(CC(=O)Nc2ccc3c(c2)C[C@@]2(C3)C(=O)Nc3ncccc32)Cc2ccccc2CNC)CCN(C(=O)c2cn[nH]c2)CC1 [Example 85, (R)-4-Ethyl-N-(2-((methylamino)methyl)benzyl)-N-(2-oxo-2-((2′-oxo-1,1′,2′,3-tetrahydrospiro[indene-2,3′-pyrrolo[2,3-b]pyridin]-5-yl)amino)ethyl)-1-(1H-pyrazole-4-carbonyl)piperidine-4-carboxamide]
1.26	CCC1(C(=O)N(CC(=O)Nc2ccc3c(c2)C[C@@]2(C3)C(=O)Nc3ncccc32)Cc2ccccc2CNC)CCN(C(=O)c2cncs2)CC1 [Example 86, (R)-4-Ethyl-N-(2-((methylamino)methyl)benzyl)-N-(2-oxo-2-((2′-oxo-1,1′,2′,3-tetrahydrospiro[indene-2,3′-pyrrolo[2,3-b]pyridin]-5-yl)amino)ethyl)-1-(thiazole-5-carbonyl)piperidine-4-carboxamide]
2.19	CCC1(C(=O)N(CC(=O)Nc2ccc3c(c2)C[C@@]2(C3)C(=O)Nc3ncccc32)Cc2ccccc2CNC)CCN(C(=O)C23CC(C2)C3)CC1 [Example 87]
2.45	CCC1(C(=O)N(CC(=O)Nc2ccc3c(c2)C[C@@]2(C3)C(=O)Nc3ncccc32)Cc2ccccc2CNC)CCN(C(=O)C(C)(C)F)CC1 [Example 88, (R)-4-Ethyl-1-(2-fluoro-2-methylpropanoyl)-N-(2-((methylamino)methyl)benzyl)-N-(2-oxo-2-((2′-oxo-1,1′,2′,3-tetrahydrospiro[indene-2,3′-pyrrolo[2,3-b]pyridin]-5-yl)amino)ethyl)piperidine-4-carboxamide]
